Experimental data reported in patent US20070203144A1, “Use of Memantine and Brimonidine to Attenuate Vitreoretinal Vascular Endothelial Growth Factor (VEGF) Protein Levels in Animals” (Allergan, Inc., priority 2006, published 2007).

Experiments:
VEGF protein [1] = experiment: Vitreal VEGF protein level in STZ-induced diabetic Long Evans rats; assay type: in vivo; settings: STZ diabetic LE rats, mini-osmotic pump, STZ/Veh 228, Veh/Veh 164
Method: Long Evans (LE) rats were treated with vehicle or streptozotocin (1×, 65 mg/kg). After 7 days, vehicle treated rats were treated further with a second vehicle and STZ treated diabetic rats were treated either with a second vehicle, Brimonidine (1 mg/kg/d) as a positive control, Panagonist A (300 ug/kg/d) or panagonist B (300 ug or 3 mg/kg/d) for another 3 wks using mini-osmotic pumps. Note that the synthesis of these two panagonists is known in the art. The panagonists have the following structure [drawing 1]
At end of the study, animals were sacrificed & vitreal VEGF protein level was measured as described earlier.
Long Evans rats were treated with vehicle or streptozotocin (1×, 65 mg/kg). After 7 days, vehicle treated rats were treated further with a second vehicle and STZ treated diabetic rats were treated either with a second vehicle, Brimonidine (1 mg/kg/d) as a positive control, or the Alpha 2B selective agonist, [drawing 2] (“2B Agonist”) (300 ug or 3 mg/kg/d) for another 3 wks using mini-osmotic pumps At end of the study, animals were sacrificed & vitreal VEGF protein level was measured as described earlier.

VEGF protein [2] = experiment: VEGF protein levels in vitreous fluid of non-diabetic BN rats; assay type: in vivo, Brown Norway (BN) rats; settings: Mem 10 mg/kg/day or Bri 1 mg/kg/day for 28 days
VEGF protein [3] = experiment: VEGF protein levels in retina of STZ-treated BN rats; assay type: in vivo, Brown Norway (BN) rats; settings: 5 wks, Mem 10 mg/kg/day or Bri 1 mg/kg/day for 4 wks after 1 wk of STZ, STZ/Veh 719, Veh/Veh 482
Method: (§1) Male Brown Norway (BN) rats were randomized into 4 different groups based on basal glucose and body weight. Using one time IP injection, one group of animals was treated with vehicle and other 3 groups were treated with 65 mg/kg streptozotocin (STZ). Within two days after STZ-treatment, blood glucose of the animals reached to 400 mg/dl from 100 mg/dl. After one wk of vehicle or STZ treatment, vehicle treated animals were further treated with a second vehicle for another 4 wks (Veh/Veh-35 D) and STZ treated animals were treated with either a second vehicle (STZ-35D/Veh-28D), Memantine, Mem (10 mg/kg/day) (STZ-35D/Mem-28D) or Brimonidine, Bri (1 mg/kg/day) for 4 wks (STZ-35D/Bri-28D) using mini osmotic pumps.

VEGF protein [4] = experiment: VEGF protein levels in vitreous fluid of STZ-treated BN rats; assay type: in vivo, Brown Norway (BN) rats; settings: 5 wks, Mem 10 mg/kg/day or Bri 1 mg/kg/day for 4 wks after 1 wk of STZ, STZ/Veh 259, Veh/Veh 157
Method: as §1

[5] = tested on: blood-retinal barrier (BRB); experiment: Retinal BRB breakdown in STZ-treated BN rats; assay type: in vivo, Brown Norway (BN) rats; settings: 5 wks, Mem 10 mg/kg/day or Bri 1 mg/kg/day for 4 wks after 1 wk of STZ, STZ/Veh 22.9, Veh/Veh 9.1
Method: as §1

[6] = 300 ug/kg/d for 3 wks (1 wk after STZ)
[7] = 3 mg/kg/d for 3 wks (1 wk after STZ)

SMILES	VEGF protein levels in vitreous fluid (VEGF protein [1]; [6])	VEGF protein levels in vitreous fluid (VEGF protein [1]; [7])	difference in vitreous fluid VEGF protein levels vs vehicle (VEGF protein [2])	VEGF protein levels in retina (VEGF protein [3])	VEGF protein levels in vitreous fluid (VEGF protein [4])	BRB breakdown in retina [5]	VEGF protein levels in vitreous fluid (VEGF protein [1]; 1 mg/kg/d for 3 wks (1 wk after STZ))
Cc1cccc([C@@H](C)c2c[nH]c(=S)[nH]2)c1C [panagonist B]	122 pg/mL	109 pg/mL	–	–	–	–	–
CC12CC3CC(C)(C1)CC(N)(C3)C2 [Memantine, memantine]	–	–	no difference	475 pg/mg protein	160 pg/mL	11.9 ul plasma/g retina dry weight/hr	–
Brc1c(NC2=NCCN2)ccc2nccnc12 [Brimonidine, brimonidine]	–	–	no difference	455 pg/mg protein	140 pg/mL	12.2 ul plasma/g retina dry weight/hr	133 pg/mL
S=c1[nH]cc(CC2CC=CC2)[nH]1 [2B Agonist]	148 pg/mL	130 pg/mL	–	–	–	–	–
c1cnc2c(c1)CC[C@@H](Cc1c[nH]cn1)C2 [panagonist A]	133 pg/mL	–	–	–	–	–	–
